# Experiments:
# [1] = test system: granulation tissue in subcutaneously implanted wound chambers; test: Rat wound chamber assay (granulation tissue formation); type: in vivo
# Procedure: Male Sprague-Dawley specific pathogen free rats (300-350 g; Charles River Breeding Laboratories, Inc.) were used for this study. Rats were anesthetized with sodium pentobarbital (50 mg/kg body weight) by intraperitoneal injection. Using aseptic surgical technique, a 3 cm midline incision was made on the dorsal surface of the rat. A single pocket was formed under the panniculus carnosis by blunt dissection on one side of the animal. A 3 cm long×1 cm diameter sterile stainless steel wire mesh cylinder was then inserted subcutaneously. The wound chambers used were similar to those described by Schilling et. al. (Surgery 46, 702-710 (1959)) and utilized by Hunt et. al. (Am. J. Surg. 114, 302-307 (1967)) as wound healing models. The incision was closed with wound clips. The rats survived the operation well with no evidence of postoperative discomfort. Beginning 3 days after wound chamber implantation, the rats were randomly divided into 5 groups. At this time daily injections of 1) 10 μg CHO-derived EBP, 2) 1 μg CHO-derived EBP, 3) 8 μg E. coli derived EBP, 4) 5 μg recombinant platelet derived growth factor (PDGF), or 5) 0.1 ml sterile PBS and 1 mM CHAPS were begun and continued for a total of 9 days. The injections were made directly into the wound chamber through a silicone septum at the outer edge of the chamber. Twelve days after chamber implantation, the rats were sacrificed by CO2 asphyxiation. Immediately after sacrifice, the chambers were removed surgically and carefully opened. The enclosed granulation tissue was then weighed, and stored at -70° C. for future processing.
# Granulation tissue samples were thawed and homogenized with a Polytron homogenizer in 2 ml of ice-cold distilled water for approximately 1 minute. Next, 2 ml of ice-cold 10% trichloroacetic acid was added to the homogenate and incubated at 4° C. for 1 hour. The TCA-precipitated samples were centrifuged (500 g, 10 minutes) at 4° C., washed once with 2 ml of ice-cold 5% TCA, and finally washed with 2 ml of ice-cold 95% ethanol containing 50 mM sodium acetate. Samples were defatted twice with 2 ml of ethanol:ether (3:1, v/v) at 20° C. After each defatting procedure, samples were centrifuged (500×g, 10 minutes) and the supernate discarded. The pellet was then dissolved in 1N sodium hydroxide and brought up to a volume of 10 ml.
# Total protein was determined by taking an aliquot of the solubilized granulation tissue and assaying the sample according to the method of Bradford (Anal. Biochem. 72, 248-251 (1976)) Bovine serum albumin (Sigma Chemical Co., St. Louis, Mo.) was used for a protein standard curve.
# Total DNA content was determined as deoxy-ribose by the colorimetric method of Burton (Biochem. J. 62, 315 (1956)). Briefly, a 1 ml aliquot of the solubilized sample (in 1N NaOH) was neutralized with the addition of 0.5 ml of 2N HCl. A 1 ml aliquot of the neutralized solution was extracted in 10% perchloric acid at 90° C. for 15 minutes. A 1 ml portion of the final extract was added to 2 ml activated diphenylamine (Sigma Chemical, St. Louis, Mo.) reagent and absorbance at 600 nm was measured after overnight incubation at room temperature. Hydrolyzed calf thymus DNA (Sigma) was used to construct the standard curve. The DNA content was measured as a rough index of the number of cells in the wound chamber, with the realization that cell type and cell cycle status also influence DNA content.
# Total glycosaminoglycans (GAGs) were determined using chondroitin sulfate as a standard. A spectrophotometric assay for GAGs was run utilizing a change in absorption spectrum of the dye 1,9- dimethyl methylene blue (Farndale et al. Conn. Tiss. Res. 9, 247-248 (1982)).
# Total collagen content was determined as hydroxyproline (an index of collagen content) after hydrolysis of the solubilized granulation tissue in 6N HCl at 110° C. for 24 hours. […]
# eck receptor (p130^eck) = test: p130eck autophosphorylation in LIM 2405 cells; type: cell-based, human; settings: intact LIM 2405 cells, 10-15 min at 37° C.
# Procedure: The LIM 2405 colorectal carcinoma cell line (Whitehead et al. Immunol. and Cell Biol. 70, 227 (1992)) was maintained in RPMI 1640 containing 5% FBS, 1 μg/ml insulin, 10 μg/ml hydrocortisone and 10 μM α-thioglycerol, and subpassaged by trypsination and dilution (1:5) into fresh media. Prior to assay 2.5×10^5 LIM 2405 cells were seeded into 6-well dishes (Falcon #3046) and incubated for 24 hr at 37° C. The media was discarded and replaced with serum-free RPMI 1640 containing 0.03% BSA, 1 μg/ml insulin, 10 μg/ml hydrocortisone and 10 μM α-thioglycerol, then incubated for 12-18 hr. In some experiments the cell cultures were labelled with ^32 P-orthophosphate (2 mCi/ml) in phosphate-free RPMI 1640 (Flow) for 2-3 hr prior to treatment. Growth factor stock solutions were prediluted at varying concentrations into 2.0 ml of serum-free media, then warmed to 37° C. Cell cultures were removed from the incubator, and the supernatant media discarded. Treatments were promptly added and the cell cultures incubated at 37° C. for 10-15 min. The cultures were then removed from the incubator, placed on ice, and the culture supernatant aspirated.
# The treated cell cultures were chilled to 0° C. then washed once with ice-cold PBS (GIBCO). The residual PBS was aspirated and the cells were lysed by the addition of 1.0 ml of ice-cold RIPA buffer (10 mM sodium phosphate, pH 7.4, 150 mM sodium chloride, 0.1% sodium dodecyl sulfate, 1% NP-40, 1% deoxycholate, 1% Trasylol, 2 mM EDTA, 50 mM sodium fluoride and 100 mM sodium orthovanadate). After a 10 min incubation the lysates were transferred to 1.5 ml tubes and clarified by centrifugation for 30 min at 10,000×g. The clarified lysate supernatants were transferred to new tubes and immunoprecipitated with 1.0 μg/ml of affinity purified rabbit anti-Eck C-terminal domain antibody for 2 hr at 0° C. Immune complexes were adsorbed to Protein-G Sepharose beads (Pharmacia) at 4° C. for 30 min, washed twice with ice-cold RIPA buffer, once with 0.1M Tris-HCl, pH 8.0, containing 0.5M LiCl, and once with RIPA. The resulting immunoprecipitates were solubilized with SDS-PAGE sample buffer and stored for further analysis.
# The anti-eck immunoprecipitates from treated and untreated LIM 2405 cell lysates were resolved on 7.5% polyacrylamide gels as previously described (Boyle et al. Meth. Enzymol. 201, 110 (1991)). […] Immune complexes were detected by chemiluminescent exposure (ECL, Amersham) to Kodak X-OMAT X-ray film at room temperature for 0.5-5 min.
# Eck receptor immunoprecipitates from ^32 P-labelled LIM 2405 cells were resolved by SDS-PAGE, and the gel dried directly without fixation. After exposure to X-ray film the labelled eck receptor band was isolated and phosphoamino acid content determined as described (Boyle et al. Meth. Enzymol. 201, 110 (1991))
# [2] = test system: extracellular domain of the kit receptor; test: BIAcore binding to surfaces activated with kit receptor extracellular domain
# From the text: SDS-PAGE analysis of the fractions from this column confirmed that EBP was co-eluted with the receptor binding activity.
# [3] = 5 ug per chamber per day x 9 days, harvest day 12, mean ± SEM
# [4] = 5 ug per chamber per day x 9 days, harvest day 12, mean ± SEM, listed as rPDGF
substance,measurement,setting,value
PDGF [reference compound],DNA,[1]; [3],356 ± 64 µg
same,HYDROXY-PROLINE,[1]; [3],478.4 ± 85.9 µg
same,TOTAL GYLCOSAMINO-GLYCANS,[1]; [3],725.2 ± 104.4 µg
same,TOTAL PROTEIN,[1]; [3],7.46 ± 1.52 mg
same,WET WEIGHT,[1]; [3],417.4 ± 81.8 mg
same,DNA,[1]; [4],significantly increased
same,TOTAL GYLCOSAMINO-GLYCANS,[1]; [4],significantly increased
same,TOTAL PROTEIN,[1]; [4],significantly increased
same,WET WEIGHT,[1]; [4],significantly increased
same,increase in hydroxyproline content over control chambers,[1]; PDGF treated chambers (5 μg per day),82%
EGF: growth factor used to treat LIM 2405 cells as specificity control [reference compound],eck receptor phosphorylation,eck receptor (p130^eck),nor does EGF treatment induce eck phosphorylation
rSCF: the kit ligand [reference compound],binding to BIAcore surfaces activated with the extracellular domain of the kit receptor,[2],could bind

# Source: patent publication US5716934A, “Eck receptor ligands” (Amgen Inc., priority 1995, dated 1998)
